Source: patent publication US8193328B2, “Identification of modulators of serine protease inhibitor Kazal and their use as anti-cancer and anti-viral agents” (Philadelphia Health & Education Corporation, priority 2005, dated 2012)
Where a SMILES comes first, the peptide text is derived from it. The star is where a group is joined. Cbz = O=C(OCc1ccccc1)*; CH2F = FC*

Experiments:
[1] = tested on: HCV replication; assay: Northern blot of HCV RNA in HCV replicon cells after antiviral treatment; type: cell-based, Hepatitis C virus; conditions: 10^5 IU/ml overnight
Method: (§1) FIG. 7A-7B. SPIK in the HCV expressing cells. SPIK RNA was detected in the cells with/without HCV replicon as before. HCV RNA was defined by the hybridization of membrane with radio-labeled probe specified HCV.
(§2) FIG. 7B—HCV replicon cells were incubated with HCV polymerase inhibitor 888 (2 mM) 2 days (Lines 3 & 4 duplicate) and 10^5 IU/ml interferon-a overnight (Lines 5 & 6 duplicate) or left untreated (Line 1 & 2 duplicate). The suppressions of HCV RNA and SPIK RNA then were analyzed by Northern blot as before. The smear detected by HCV probe under the band of HCV RNA probably was the replication form of HCV.
(§3) Over-expression of SPIK RNA in G54 cells can be abrogated by inhibition of HCV replication. Treatment of HCV replicon cells with either 2 mM of the HCV polymerase inhibitor 888 for two days or 10^5 IU/ml interferon-a overnight has reduced HCV replication by approximately 90% [FIG. 7B, lane 3-6]. This is consistent with previous reports of these antiviral agents (55, 56).

[2] = tested on: SPIK RNA; assay: Northern blot of SPIK RNA in G54 HCV replicon cells after antiviral treatment; type: cell-based, human; conditions: 10^5 IU/ml overnight
Method: as §1, §2, §3

[3] = tested on: S2-3 cells; assay: Etoposide induced CDCA in S2-3 cells, annexin stain; type: cell-based, human; conditions: 400 μM etoposide, 40 hours, data not shown
Method: (§4) FIG. 5A. S2-3 and Huh7T cells were treated with CDCA inducer 400 μM etoposide. After 40 hours, the cells apoptosis was examined in microscope and stained with annexin.
(§5) 10^5 S2-3 and Huh7T cells were seeded in 60 mm dishes. When the cell reached 90% confluent, CDCA inducer etoposide was added. After 28-40 hours, the cell shrinkage, blebbing and detachment from culture was found in both cell lines. At the same time, the strong fluorescence stain by annexin was also observed in both cell lines [FIG. 5A]. The amount of apoptotic cells in two cell lines was very similar. Around 62% S2-3 cell was stained by annexin, while 58% of Huh7T cell was stained after 40 hours treatment [data not shown].

[4] = tested on: HepG2.215 cells; assay: CDCA induced by etoposide in HepG2.215 cells; type: cell-based, human; conditions: data not shown
Method: (§6) To study the influence of HCV replication upon SPDCA, G54 and Huh7T cells (its parent cell) were seeded in a 60 mm dish. SPDCA was induced by BFA/CHX/Z-VAD. […] The insensitivity of HCV replicon cell to SPDCA was also seen subsequently by annexin staining. Compared to the parental cells, much fewer HCV expressing cells were stained by annexin after being treated with SPDCA inducers BFA/CHX/Z-VAD [FIG. 8C, Annexin]. DNA fragmentation study also support that the HCV expressing cells were more resistant to apoptosis. 70 hours treatment of BFA/CHX/Z-VAD obviously triggered the DNA fragmentation in Huh7T cell, but not in G54 cells [FIG. 8D]. […] In contrast, both HepG2.215 and G54 are sensitive to CDCA induced by etoposide [data not shown].

[5] = tested on: G54 cells; assay: CDCA induced by etoposide in G54 cells; type: cell-based, human; conditions: data not shown
Method: as §6

[6] = tested on: caspase 3; assay: Caspase 3 activity in S2-3 and Huh7T cells (Biovision kit); type: cell-based, human; conditions: 40 hours treatment
Method: FIG. 5B. The activation of caspase 3 (CDCA) in S2-3 cells treated with etoposide but not BFA/CHX/Z-VAD. The S2-3 cell and its parental cell Huh7T were either treated with SPDCA inducer BFA/CHX/ZVAD or CDCA inducer etoposide. The caspase activity was determined after […] treatment by Caspase 3 detection kit (Biovision, Mountain View, Calif.).
The same level of apoptosis induced by etoposide in S2-3 cell and Huh7T cell was confirmed by the examination of caspase 3 activity in these cells. After 40 hours treatment, all cells were lysed in […] lysis buffer. […] lysate of each sample was analyzed for caspase 3 activity test using caspase 3 detected kits [Biovision, Mountain View, Calif.]. […] Additionally, the activity of caspase3 was not increased in the cells, in which SPDCA was induced by BFA/CHX, even by double doses [FIG. 5B, B/C/ZX2].

[7] = tested on: Huh7T cells; assay: Etoposide induced CDCA in Huh7T cells, annexin stain; type: cell-based, human; conditions: 400 μM etoposide, 40 hours, data not shown
Method: as §4, §5

Row | Compound | reduction of HCV replication [1] | SPIK level [2] | cells stained by annexin [3] | sensitivity to CDCA [4] | sensitivity to CDCA [5] | caspase 3 activity [6] | cells stained by annexin [7] [%]
1 | interferon-a | approximately 90% | correspondingly decreased with HCV RNA |  |  |  |  | 
2 | COc1cc([C@@H]2c3cc4c(cc3[C@@H](O[C@@H]3O[C@@H]5CO[C@@H](C)O[C@H]5[C@H](O)[C@H]3O)[C@H]3COC(=O)[C@H]23)OCO4)cc(OC)c1O [etoposide] |  |  | Around 62% | sensitive | sensitive | at the same level in both cells | 58
3 | CC(NC(=O)C(NC(=O)OCc1ccccc1)C(C)C)C(=O)NC(CC(=O)O)C(=O)CF (stereo not drawn) [Z-VAD] (Cbz-Val-Ala-Asp-CH2F; configuration not given here) |  |  |  |  |  | kept unchanged | 
